Experimental data: US12129235B2, “TSPO binders” (The University Court of the University of Glasgow, priority 2018, dated 2024)

Biological target: TSPO (Rattus norvegicus, UniProt P16257)
Test: ^18F-LW223 PET kinetic modelling and test-retest in rats
Assay type: in vivo
Design: from tissue; host or cells: living Sprague-Dawley rats (brain, heart, lungs and other organs)
Conditions: for VT: baseline, Logan modelling; for VT / Distribution volume ratio (DVR) relative to blood pool: mean±SEM, n=3
Method: All experiments were conducted in accordance with the local University of Edinburgh animal ethics committee and were authorized by the Home Office under the Animals (Scientific Procedures) Act 1986. 28 adult male Sprague-Dawley rats (357.1±8.1 g and 10.2±0.4 weeks), and 2 C57bl/6 (25.3±3.7 g and 10.1±0.0 weeks) were used for this study, with 2 C57bl/6 (26.0±5.3 g and 13.5±5.7 weeks) used in an additional study. The animals were housed under standard 12 h light:12 h dark conditions with food and water available ad libitum. On the day of the experiment, anesthesia was induced and maintained with 1.5-2.5% isoflurane (50/50 oxygen/nitrous oxide, 1 L/min). For imaging experiments, an intravenous (i.v.) line was established in the femoral vein or tail vein for injection of the radiotracer and the femoral artery was cannulated to allow automated blood sample collection, as previously described (Warnock et al.).
13 PET scans were performed with ^18F-LW223 (mean injected radioactivity of 19.55±2.1 MBq). Scans were acquired following i.v. bolus injection of ^18F-LW223 via tail vein or femoral vein shunt (invasive kinetic modelling experiments with β-probe automatic blood sampler) in rats. Test-retest scans were obtained in three rats following i.v. bolus of the radiotracer, with two weeks interval between test and retest imaging sessions. […] These scans were compared to baseline scans where no PK11195 was used. For displacement studies, rats received i.v. administration of ^18F-LW223 and scanned continuously for 120 min. […] A male and female mouse were initially used to derive the dosimetry estimates for ^18F-LW223 over a 4 h dynamic scan, followed by additional mice in a further study (in a study with a mean injected radioactivity of 10.83±5.6 MBq).
A commercially available β-probe system (Twilite2, Swisstrace, Switzerland) was used for the measurement of blood radioactivity as previously described (Warnock et al.). […] With data acquired in separate studies (radiometabolite experiments), the whole-blood arterial input function measured by the automatic blood sampler was corrected for the plasma-to-whole blood ratio and for metabolism in vivo.
All PET data were acquired using a preclinical PET/CT small animal scanner (nanoPET/CT, Mediso, Hungary). A CT scan (semi-circular full trajectory, maximum field of view, 480 projections, 50 kVp, 300 ms and 1:4 binning) was acquired for attenuation correction. Immediately following radiotracer administration, a 120 minutes emission scan was obtained using 3-dimentional 1:5 mode and re-binned as follows: 18×10 s; 2×30 s; 1×60 s; 2×2 min; 10×5 min; 6×10 min. PET images were reconstructed using Mediso's iterative Tera-Tomo 3D reconstruction algorithm and the following settings: 4 iterations, 6 subsets, full detector model, low regularization, spike filter on, voxel size 0.4 mm and 400-600 keV energy window. PET data were corrected for randoms, scatter and attenuation.
Image Processing and Data Analysis Reconstructed scans were imported into PMOD 3.8 software (PMOD Technologies, Switzerland). Volumes of interest (VOIs) were manually drawn around organs of interest. Time-activity curves (TACs) were generated and standardized uptake values (SUVs) calculated as concentration in the VOI divided by injected dose divided by animal weight. Kinetic modelling was performed using compartmental analysis (1-Tissue (1T) and 2-Tissue (2T) models) and graphical analysis (Logan plot and Ichise multivariate analysis) to estimate the volume of distribution (VT) in different tissues (Innis et al.; Logan; and Ichise et al.). Model fitting performance was evaluated using the Akaike information criterion (AIC) and the model selection criterion (MSC), where the preferred model had the lowest AIC and highest MSC. The selected identifiability criterion was the percentage standard error (% SE) of VT estimates. […]

With `CC[C@@H](C)N(C)C(=O)c1nc2ccccc2c(-c2ccccc2)c1C[18F]` [^18F-LW223, (R)-(N-sec-Butyl)-3-[19-fluoro]-methyl-N-methyl-4-phenylquinoline-2-carboxamide] the “test-retest inter-subject variability of DVR” value (brain) was 16%, the VT (brain) was 1.46 and the “Distribution volume ratio (DVR) relative to blood pool” value (brain) was 0.53±0.06. For the same compound, the “test-retest inter-subject variability of DVR” value (heart) was 2%, the VT (heart) was 9.48±0.03 and the “Distribution volume ratio (DVR) relative to blood pool” value (heart) was 2.96±0.14. The “test-retest inter-subject variability of DVR” value (lungs) was 15%, the VT (lungs) was 5.13±0.29 and the “Distribution volume ratio (DVR) relative to blood pool” value (lungs) was 1.84±0.13.
